Measurements: BindingDB's records for doi:10.1111/cbdd.12174 (Washington State University At Pullman, 2013)

Target: T1, Glutamate carboxypeptidase 2 [44-750] (Homo sapiens, UniProt Q04609)
T1 construct: 44-750
Assay: IC50 Assay
Conditions: pH 7.4; 37 °C
Description: Inhibitors were made in TRIS buffer (50mM Tris pH 7.4 containing 1% Triton X-100). Working solutions of purified GCPII (50ug/mL) were diluted in TRIS buffer to provide from 15% to 20% conversion of substrate to product in the absence of inhibitor. The incubation mixture (final volume 250μL) contained either 25μL of an inhibitor solution or 25μL TRIS buffer to 175μ TRIS buffer in a test tube, followed by the addition of PABGgG (25μL, […]). The enzymatic reaction was initiated by the addition of 25μL of the GCPII working solution and allowed to proceed for 15min with constant shaking at 37°C. The reaction was quenched by the addition of 25μL methanolic TFA (2% trifluoroacetic acid by volume in methanol) followed by vortexing. The quenched mixture was immediately buffered by the addition of 25μL K2HPO4 (0.1M), vortexed, and centrifuged.

T1 sequence (Q04609 44-750): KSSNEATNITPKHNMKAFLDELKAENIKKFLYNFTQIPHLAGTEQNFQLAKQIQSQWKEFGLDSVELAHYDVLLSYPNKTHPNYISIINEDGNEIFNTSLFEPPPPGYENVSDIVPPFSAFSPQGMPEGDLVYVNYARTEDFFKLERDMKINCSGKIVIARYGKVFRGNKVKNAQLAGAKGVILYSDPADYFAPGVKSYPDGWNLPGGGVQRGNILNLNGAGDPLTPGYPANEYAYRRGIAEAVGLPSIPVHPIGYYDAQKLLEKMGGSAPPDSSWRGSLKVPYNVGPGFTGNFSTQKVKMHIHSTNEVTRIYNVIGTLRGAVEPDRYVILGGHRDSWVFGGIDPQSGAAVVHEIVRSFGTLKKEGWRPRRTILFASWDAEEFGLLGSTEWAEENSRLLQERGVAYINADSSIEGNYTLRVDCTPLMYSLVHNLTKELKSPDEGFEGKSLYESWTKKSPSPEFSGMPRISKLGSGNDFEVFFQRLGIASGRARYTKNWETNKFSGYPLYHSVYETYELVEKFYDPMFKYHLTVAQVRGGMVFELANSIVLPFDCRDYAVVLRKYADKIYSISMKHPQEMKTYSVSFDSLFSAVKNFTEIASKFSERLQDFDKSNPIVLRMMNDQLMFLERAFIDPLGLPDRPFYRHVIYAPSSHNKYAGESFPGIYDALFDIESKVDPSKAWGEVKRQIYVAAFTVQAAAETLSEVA

IC50: > 100 µM
Structure (SMILES): O=C(O)CC[C@H](NS(=O)(=O)NC[C@H](NC(=O)c1ccccc1)C(=O)O)C(=O)O [(S)-2-((N-((S)-2-benzamido-2-carboxyethyl)sulfamoyl)amino)pentanedioic acid (2b)]
